Assay results published in publication PMC7243115, “Evaluation of the Anti-Tumor Activity of Small Molecules Targeting Eph/Ephrins in APC ^min/J Mice” (Pharmaceuticals, 2020).
Several values for one entry are separate records, joined by “and”; a condition that tells them apart may be missing. Equal entries are not always repeated.

Key:
[1] = tested on: adenomas in APC ^min/J mice; experiment: Intestinal tumorigenesis model: number and diameter of adenomas (histological analysis); type: in vivo
Procedure: UniPR129, UniPR139 and UniPR1331 were tested in an animal model of intestinal tumorigenesis, based on the usage of APC ^min/J mice, which spontaneously develop multiple and large adenomas over intestinal tract due to a gene mutation. […] Five weeks old mice have been treated with the three compounds at 30 mg/kg dose for 8 weeks every other day following previous observations. The weight of the mice has been monitored from the beginning of the treatment until the end of the study to follow the course of the disease and to detect potentially toxic effects of compounds.
(§1) 5 weeks old C57BL/6J-APC ^min/J male mice were purchased from Jackson Laboratory (Bar Harbor, ME USA). Mice were weighted and randomly subdivided in four groups: • Control group: Oral administration of Methocel 0.5% every other day; • Three treatment groups: oral administration of UniPR129, UniPR139 or UniPR1331 30 mg/kg in Methocel 0.5% every other day.
(§2) The experiment was carried out for 8 weeks and over this period the weight was monitored once a week. At the end of the experiment, all mice were sacrificed by carbon dioxide inhalation and blood samples were collected via intracardiac […] and used for evaluation of hematological parameters.
The whole intestine of all the mice was resected, washed with sterile PBS and fixed with 4% formalin. After 24 h, the intestine was longitudinally divided in 6 portions (1-duodenum, 2-jejunum, 3-ileum, 4-caecum, 5-colon, 6-rectum) and each portion was embedded in paraffin and sectioned at 5 μm with microtome (Leica). Slides were dried at 37 °C for 24 h, then deparaffinized in xylene, rehydrated with decreasing concentration of alcohol and stained with hematoxylin and eosin.
Histological slides were examined with Nikon Eclipse E800 microscope (Nikon Corporation, Japan) and photographs of sections were taken at 2x with Camera Nikon DIGITAL SIGHT attached to the microscope. The observation of longitudinal sections of the small intestine allowed to determine the distribution and number of adenomatous lesions; four longitudinal sections have been prepared for each segment of small intestine. The microscopic images of the ileum have been subsequently analyzed, using the ImageJ software, to determine the diameter and area of each adenoma.

[2] = tested on: APC ^min/J mice; type: in vivo; settings: 30 mg/kg oral every other day, 8 weeks
Procedure: UniPR129, UniPR139 and UniPR1331 were tested in an animal model of intestinal tumorigenesis, based on the usage of APC ^min/J mice, which spontaneously develop multiple and large adenomas over intestinal tract due to a gene mutation.
as §1, §2
Hematological and blood chemistry parameters were undergone to one-way ANOVA to compare control group to treatment groups.

[3] = cited from earlier work
[4] = of the total number of adenomas in the ileum section

C[C@H](CCC(=O)N[C@H](CC(=O)O)Cc1c[nH]c2ccccc12)[C@H]1CC[C@H]2[C@@H]3CC[C@@H]4C[C@H](O)CC[C@]4(C)[C@H]3CC[C@]12C [UniPR129]
efficacy in the model of intestinal tumorigenesis ([1]; 30 mg/kg oral every other day, 8 weeks): the only compound to show positive results | Ileum Adenomas, Mean (number) ([1]; 30 mg/kg oral every other day, 8 weeks, n = 7, CTR 13.14): 7.57 ± 2.07 and 7.57 | Overall Intestine Adenomas, Mean (number) ([1]; 30 mg/kg oral every other day, 8 weeks, n = 7, CTR 19.71): 14.00 | reduction of the formation of adenomas in the ileum ([1]; 30 mg/kg oral, 8 weeks, vs control): 1.6 times | mean adenoma diameter in the ileum ([1]; 30 mg/kg oral, ± 0.28 (SD), control 0.94 mm ± 0.39 (SD)): 0.71 mm | number of medium adenomas (1 to 1.5 mm) in the ileum ([1]; 30 mg/kg oral, ± SD, CTR 29 ± 2.5): 11 ± 1.3 | Percentage of adenomas, class Large (1.5 to 2 mm) [1, 4]: 0% | Percentage of adenomas, class Medium (1 to 1.5 mm) [1, 4]: 21% | Percentage of adenomas, class Small (0.5 to 1 mm) [1, 4]: 51% | Percentage of adenomas, class Very Large (> 2 mm) [1, 4]: 0% | Percentage of adenomas, class Very Small (< 0.5 mm) [1, 4]: 28% | tolerability [2]: well tolerated | ALT ([2]; mean ± SD, n = 7): 23.43 ± 3.78 UI | AST/GOT ([2]; mean ± SD, n = 7): 108.86 ± 47.11 UI | Basophils ([2]; mean ± SD, n = 7): 0.00 ± 0.00% | Creatinine ([2]; mean ± SD, n = 7): 0.22 ± 0.08 mg/dL | Eosinophils ([2]; mean ± SD, n = 7): 0.10 ± 0.10% | Glucose ([2]; mean ± SD, n = 7): 161.10 ± 21.18 mg/dL | Haematocrit ([2]; mean ± SD, n = 7): 26.69 ± 6.56% | Haemoglobin ([2]; mean ± SD, n = 7): 8.71 ± 2.15 g/dL | Lymphocytes ([2]; mean ± SD, n = 7): 93.29 ± 6.14% | Mean cellular Volume ([2]; mean ± SD, n = 7): 53.87 ± 2.62 fL | Mean platelet Volume ([2]; mean ± SD, n = 7): 4.91 ± 0.43 fL | Monocytes ([2]; mean ± SD, n = 7): 0.43 ± 0.31% | Neutrophils ([2]; mean ± SD, n = 7): 6.20 ± 6.33% | Platelets ([2]; mean ± SD, n = 7): 1191 ± 186.77 103/µL | Red cells ([2]; mean ± SD, n = 7): 5.01 ± 1.43 106/µL | Triglycerides ([2]; mean ± SD, n = 7): 145.10 ± 38.6 mg/dL | White cells ([2]; mean ± SD, n = 7): 4.83 ± 0.70 103/μL | bioavailability after oral administration [3]: not be bioavailable after oral administration | first pass hepatic metabolism [3]: extensive first pass hepatic metabolism
